Experimental findings from US20260283983A1, “PHARMACEUTICAL COMPOSITIONS FOR WOUND CARE” (BIO PROTECTANT TECHNOLOGIES, INC., priority 2023, published 2026) are described below.

Experiment [1] deals with S. mutans. Put plainly: S. mutans quantitative biofilm reduction assay. It is filed as cell-based. Conditions: same treatment concentration; FIG. 6A-6C. The procedure:
• Day 1: O/N culture of S. mutans • Day 2: Dilute O/N culture 1:9 in BHI • Place discs in 2 mL diluted culture and incubate 24 h • Day 3 Transfer discs to 2 mL BMGS (culture in BMGS for 1-3 days) • Day 4 1-Day: Transfer discs to 2 mL sterilants for desired incubation time • Transfer discs back to 2 mL BMGS for 24 h • 2-Day: Transfer discs to 2 mL BMGS and incubate for another 24 h • Day 5 1-Day: Sonicate disc and plate 100 μL of different dilutions • 2-Day: Transfer discs to 2 mL sterilants for desired incubation time • Transfer discs back to 2 mL BMGS for 24 h • Day 6 1-Day: Count plates • 2-Day: Sonicate disc and plate 100 μL of different dilutions • Day 7 Count plates

The test system of experiment [2] is S. aureus ATCC 6538. Kind of experiment: MIC and MBC determination, S. aureus ATCC 6538. It is filed as cell-based. Conditions: Staphylococcus aureus. The text has this: (§1) The MIC and MBC of Formulation B was initially determined using a panel of S. aureus strains (Table 1) including laboratory S. aureus ATCC 6538, bioluminescent S. aureus strain Newman, bioluminescent CA-MRSA strain MW2, and a MRSA clinical isolate.

Experiment [3] deals with MRSA clinical isolate. Put plainly: MIC and MBC determination, MRSA clinical isolate. Conditions: Staphylococcus aureus. The class given is cell-based, S. aureus.
Description: as §1

Experiment [4] has as its system bioluminescent MRSA (CA-MRSA). Put plainly: Murine model of wound healing (biopsy punch) infected with bioluminescent MRSA. The class given is in vivo. Conditions: mice infected with 1×10^5 CFU bioluminescent MRSA; 20 μL topically three times daily; two week period; FIG. 1A. The method, then: An exemplary formulation (Formulation A) was tested in the murine model of wound healing (Dunn, Louise, et al. “Murine model of wound healing.” Journal of Visualized Experiments. 75 (2013): e50265-e50265).
• Biopsy punch model performed • Infected with 1×10^5 CFUs bioluminescent MRSA
Wound was imaged then treated with Formulation A
The animals were treated topically with 20 μL of Formulation A, bacitracin, or vehicle three times daily and imaged
The animals were imaged, weight, and their wound was measured daily
The animals were sacrificed and the bacterial burdens were checked in the wound, the liver, the spleen, and the blood.
Tracking of infection and wound healing in mice infected with 1×10^5 CFU bioluminescent MRSA and treated with 20 μL Formulation A, bacitracin (positive control), or vehicle control (N=5 for each treatment group). FIG. 1A: average radiance in the wound bed detected over a two week period. […] Statistical analysis was conducted in GraphPad Prism 6 using a two-way ANOVA test: ***p<0.001; ****p<0.0001. FIG. 1B: box and whisker plots of the wound area over time, beginning on day 4 after the removal of the surgical wound dressing. […] FIG. 1C: plot of the change in weight through the duration of infection and treatment.

The test system of experiment [5] is Bioluminescent CA-MRSA strain MW2. Kind of experiment: MIC and MBC determination, bioluminescent CA-MRSA strain MW2. The class given is cell-based, S. aureus. Conditions: Staphylococcus aureus.
Description: as §1

Experiment [6] deals with Bioluminescent S. aureus strain Newman. Kind of experiment: MIC and MBC determination, bioluminescent S. aureus strain Newman. The class given is cell-based. Conditions: Staphylococcus aureus.
Description: as §1

[7] abbreviates: read-out: Minimum Bactericidal Concentration.
Where [8] appears, read: read-out: Minimum Inhibitory Concentration.

In brackets after ≈: the same amount, converted by molar mass. Where a SMILES comes first, the peptide text is derived from it. Bridges are numbered along the chain shown (N, C = ends). [ ]: non-standard residue; d: D form. The star is where a group is joined. Ileψ(thiazoline)Cys = CC[C@H](C)[C@H](N)C1=N[C@H](C(=O)*)CS1; dOrn = NCCC[C@@H](N)C(=O)O

Regarding `CCCCCCCCCCCCC[N+](C)(C)Cc1ccccc1` [BAK, benzalkonium chloride], the “biofilm accumulation after treatment” value in experiment [1] is reported as “approximate equivalence”.
As to `CC[C@H](C)[C@H](N)C1=N[C@H](C(=O)N[C@@H](CC(C)C)C(=O)N[C@H](CCC(=O)O)C(=O)N[C@H](C(=O)N[C@H]2CCCCNC(=O)[C@H](CC(N)=O)NC(=O)[C@@H](CC(=O)O)NC(=O)[C@H](Cc3cnc[nH]3)NC(=O)[C@@H](Cc3ccccc3)NC(=O)[C@H]([C@@H](C)CC)NC(=O)[C@@H](CCCN)NC2=O)[C@@H](C)CC)CS1` [Bacitracin] ({Ileψ(thiazoline)Cys}-L[dE]IK[dOrn]I[dF]H[dD]N; lactam 4-C), the MBC in experiment [2] (ATCC6538, read-out: Minimum Bactericidal Concentration) is 67 µg/mL (≈ 47.1 µM); in experiment [3] (setting [7]) it was 67 µg/mL (≈ 47.1 µM); in experiment [5] (setting [7]) it was 333 µg/mL (≈ 234 µM); in experiment [6] (setting [7]), 333 µg/mL (≈ 234 µM). Also, the MIC is 67 µg/mL (≈ 47.1 µM) in experiment [2] (ATCC6538, read-out: Minimum Inhibitory Concentration); 67 µg/mL (≈ 47.1 µM) in experiment [3] (setting [8]); 67 µg/mL (≈ 47.1 µM) in experiment [5] (setting [8]); 67 µg/mL (≈ 47.1 µM) in experiment [6] (setting [8]). Besides, in experiment [4], the “bacterial burden, average radiance in the wound bed” value is listed as “completely cleared infection within the first day”.
For the compound “C12-C14 alkyl(ethylbenzyl)dimethylammonium chloride”, the “biofilm accumulation after treatment” value in experiment [1] was “approximate equivalence”.
